The values that follow come from patent US20110053897A1 (IRM LLC, priority 2009, published 2011).

The target in one assay is T1, Syk kinase (Homo sapiens, UniProt P43405).
T1 construct: purchased
Kind of assay: Syk kinase inhibition, Caliper LabChip off-chip mobility-shift kinase assay. The assay is classed as biochemical. To be noted: Caliper LabChip assay; read-out: Syk Enzyme IC50. In short, it runs like this: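 Purified Syk pre-incubated 15 min with compound in 100 mM HEPES pH 7.5, 1 mM DTT, 10 mM MgCl2 or MnCl2, 0.002% Brij-35, then 1.5 μM fluorescein peptide and ATP at apparent KM added; 1–1.5 h at room temperature, 4% DMSO, EDTA stop. Microfluidic mobility-shift product/substrate conversion gave % inhibition; IC50 from 12-point series (10–0.00003 μM) by 4-parameter fit.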
Turning to `CC(C)(C)Nc1nc(Nc2cnccn2)cc2ccn(Cc3cccnc3)c(=O)c12` [compound 1020], the IC50 stood at 0.164 µM.

In the case of `COCCN1CCC(Oc2cc(Nc3cc4ccn(CCO)c(=O)c4c(NC(C)(C)C)n3)ncn2)CC1` [compound 647, 8-(tert-butylamino)-2-(2-hydroxyethyl)-6-(6-(1-(2-methoxyethyl)piperidin-4-yloxy)pyrimidin-4-ylamino)-2,7-naphthyridin-1(2H)-one], the half-inhibitory concentration (IC50) was 0.014 µM.

In the case of `CCn1ccc2cc(-c3cnc(N)nc3)nc(N)c2c1=O` [compound 743, 8-amino-6-(2-aminopyrimidin-5-yl)-2-ethyl-2,7-naphthyridin-1(2H)-one], the 50% inhibitory concentration (IC50) came to 0.287 µM.

Consider `C[C@H](O)c1ccnc(Nc2cc3ccn(CCO)c(=O)c3c(NC(C)(C)C)n2)c1` [compound 714], for which the half-maximal inhibitory concentration (IC50) came to 0.013 µM.

Regarding `CC(C)(C)Nc1nc(Nc2cnccn2)cc2ccn(C[C@@H](O)c3ccccc3)c(=O)c12` [compound 676], the IC50 was found to be 0.12 µM.

Consider `CC1(Nc2nc(-c3cnc(N)nc3)cc3ccn(CCO)c(=O)c23)CCC1` [compound 907], for which the IC50 was less than 0.000847 µM.

With `CC(C)(C)Nc1nc(Nc2cc(CN3CC(O)C3)ccn2)cc2ccn(CCO)c(=O)c12` [Compound No. 600, 8-(tert-butylamino)-6-(4-((3-hydroxyazetidin-1-yl)methyl)pyridin-2-ylamino)-2-(2-hydroxyethyl)-2,7-naphthyridin-1(2H)-one], the half-inhibitory concentration (IC50) stood at 0.0186 µM.

Consider `[2H]C([2H])([2H])n1ccc2cc(Nc3cnccn3)nc(NC[C@@H]3CCCO3)c2c1=O` [compound 1048], for which the half-maximal inhibitory concentration (IC50) was 0.164 µM.

Take `CC(C)(C)Nc1nc(Nc2cnccn2)cc2ccn(CCOCCO)c(=O)c12` [compound 1013]: the concentration for half-maximal inhibition (IC50) is 0.069 µM.

As for `COCCn1ccc2cc(-c3cnc(N)nc3)nc(NC(C)(C)C)c2c1=O` [compound 910], the IC50 was found to be 0.03 µM.

In the case of `CCn1ccc2cc(Nc3cnccn3)nc(NC3(CO)CCCC3)c2c1=O` [compound 788], the IC50 is 0.324 µM.

For `CCn1ccc2cc(Nc3cnccn3)nc(Nc3ccc(C(=O)N4CCC(O)C4)cc3)c2c1=O` (centres unmarked) [compound 833], the IC50 was found to be 0.263 µM.

On to `CCn1ccc2cc(Nc3cnccn3)nc(NC3CC=C(C)CC3)c2c1=O` (centres unmarked) [compound 955], for which the half-inhibitory concentration (IC50) was found to be 0.376 µM.

As for `Cc1ccnc(Nc2cc3ccn(C)c(=O)c3c(Nc3ccc(OCCN4CCOCC4)cc3)n2)c1` [compound 653], the concentration for half-maximal inhibition (IC50) turned out to be 0.333 µM.

On to `CC(C)(C)Nc1nc(-c2cnc(N)nc2)cc2ccn(CC(O)C(F)(F)F)c(=O)c12` (centres unmarked) [compound 926], for which the IC50 came to 0.05 µM.

Take `Cc1[nH]ncc1-c1ccnc(Nc2cc3ccn(CCO)c(=O)c3c(NC(C)(C)C)n2)c1` [compound 855]: the IC50 was determined as 0.244 µM.

In the case of `CC(C)(C)Nc1nc(Nc2cc(C(F)(F)F)ccn2)cc2ccn(CCO)c(=O)c12` [compound 901], the IC50 was 0.231 µM.

With `CCn1ccc2cc(Nc3cnccn3)nc(NCC(O)C(F)(F)F)c2c1=O` (centres unmarked) [compound 779, 2-ethyl-6-(pyrazin-2-ylamino)-8-((3,3,3-trifluoro-2-hydroxypropyl)amino)-2,7-naphthyridin-1(2H)-one], the IC50 came out at 0.145 µM.

Consider `CC(C)(C)Nc1nc(Nc2cc(C(O)C(F)(F)F)ccn2)cc2ccn(CCO)c(=O)c12` (centres unmarked) [Compound No. 602, 8-(tert-butylamino)-2-(2-hydroxyethyl)-6-(4-(2,2,2-trifluoro-1-hydroxyethyl)pyridin-2-ylamino)-2,7-naphthyridin-1(2H)-one], for which the IC50 stood at 0.065 µM.

For the compound `CCn1ccc2cc(Nc3cnccn3)nc(N[C@H](C)CO)c2c1=O` [compound 963], the IC50 came to 0.147 µM.

Turning to `CCn1ccc2cc(Nc3cc(C)ccn3)nc(NC(C)(C)CCO)c2c1=O` [compound 782], the IC50 came out at 0.217 µM.

As to `CC(C)(C)Nc1nc(Nc2cnccn2)cc2ccn(CC(=O)N3CCOCC3)c(=O)c12` [compound 1008], the 50% inhibitory concentration (IC50) is 0.238 µM.

The same assay, now with this note: read-out: Syk Enzyme IC50.
Turning to `CC(C)Nc1nc(Nc2cc(C(N)=O)ccn2)cc2cc[nH]c(=O)c12` [compound 514], the IC50 was found to be 0.051 µM.

Consider `Cc1ccnc(Nc2cc3ccn(C)c(=O)c3c(NCC(F)(F)F)n2)c1` [compound 493], for which the IC50 turned out to be 0.214 µM.

`CCNc1nc(Nc2cc(C)ccn2)cc2cc[nH]c(=O)c12` [compound 566]: the half-inhibitory concentration (IC50) came out at 0.803 µM.

As to `COc1cncc(-c2cc3cc[nH]c(=O)c3c(Nc3ccc(C4CCN(CC(O)CO)CC4)cc3)n2)n1` (centres unmarked) [compound 127], the IC50 was found to be 0.007 µM.

As for `COc1cncc(-c2cc3cc[nH]c(=O)c3c(Nc3ccc(CCN4CCC(OC)CC4)cc3)n2)n1` [compound 23], the IC50 worked out at 0.039 µM.

On to `CCNC(=O)Cn1ccc2cc(Nc3cc(C)ccn3)nc(NC(C)C)c2c1=O` [compound 316], for which the half-inhibitory concentration (IC50) came to 0.27 µM.

`Nc1nccc(-c2cc3cc[nH]c(=O)c3c(Nc3ccc(N4CCOCC4)cc3)n2)n1` [compound 53]: the IC50 was 0.494 µM.

For the compound `Cc1ccnc(Nc2cc3ccn(CCO)c(=O)c3c(NC(C)(C)C)n2)c1` [compound 487], the IC50 is 0.102 µM.

Take `CC(C)Nc1nc(Nc2cc(Cl)ccn2)cc2cc[nH]c(=O)c12` [compound 484]: the IC50 amounted to 0.054 µM.

As to `CCc1ccnc(Nc2cc3cc[nH]c(=O)c3c(Nc3ccc(C4CCN(C5CC5)CC4)c(C)c3)n2)c1` [compound 253], the half-maximal inhibitory concentration (IC50) was determined as 0.033 µM.

Take `CCCNC(=O)c1ccc(Nc2cc3ccn(C)c(=O)c3c(N)n2)nc1` [compound 575]: the concentration for half-maximal inhibition (IC50) came out at 2.61 µM.

With `Cc1ccnc(Nc2cc3ccn(C)c(=O)c3c(Nc3ccc(S(C)(=O)=O)cc3)n2)c1` [compound 332], the IC50 was 0.078 µM.

Consider `Cc1ccnc(Nc2cc3ccn(C)c(=O)c3c(Nc3cccc(S(N)(=O)=O)c3)n2)c1` [compound 352], for which the IC50 is 0.294 µM.

Consider `Cc1ccnc(Nc2cc3ccn(CCN4CCOCC4)c(=O)c3c(NC(C)C)n2)c1` [compound 315], for which the IC50 was determined as 0.381 µM.

In the case of `[2H]C([2H])([2H])n1ccc2cc(Nc3cc(C)ccn3)nc(N[C@H]3CC[C@@H](O)CC3)c2c1=O` [compound 378], the half-inhibitory concentration (IC50) turned out to be 0.02 µM.

As for `Cc1ccnc(Nc2cc3cc[nH]c(=O)c3c(NC3CC3)n2)c1` [compound 535], the IC50 was 0.206 µM.

As for `Cc1cc(Nc2nc(-c3cnn(CC(C)C)c3)cc3cc[nH]c(=O)c23)ccc1C1CCN(C2CC2)CC1` [compound 211], the half-inhibitory concentration (IC50) worked out at 0.197 µM.

Regarding `Cn1ccc2cc(Nc3cnccn3)nc(Nc3ccc(C(N)=O)cc3)c2c1=O` [compound 468], the IC50 was 0.101 µM.

Consider `COc1cncc(-c2cc3cc[nH]c(=O)c3c(Nc3ccc(C4CCN(C(=O)[C@H](C)OC)CC4)c(C)c3)n2)n1` [compound 58], for which the IC50 worked out at 0.04 µM.

On to `Cn1ccc2cc(-c3cnc(N)nc3)nc(NC3CC3)c2c1=O` [compound 38], for which the IC50 was 0.062 µM.

Consider `CCOCCc1cc2cc[nH]c(=O)c2c(Nc2ccc(N3CCO[C@H](C)C3)c(C)c2)n1` [compound 222], for which the concentration for half-maximal inhibition (IC50) was determined as 0.243 µM.

Consider `COc1nc(-c2cc3cc[nH]c(=O)c3c(Nc3ccc(C4CCN(CCC#N)CC4)cc3)n2)cnc1N` [compound 154], for which the IC50 turned out to be 0.02 µM.

On to `Cc1cc(Nc2nc(Nc3ccc(C(N)=O)cn3)cc3cc[nH]c(=O)c23)ccc1N1CCO[C@H](C)C1` [compound 538], for which the half-maximal inhibitory concentration (IC50) worked out at 0.361 µM.

For the compound `Cc1cc(Nc2nc(Nc3cc(CO)ccn3)cc3cc[nH]c(=O)c23)ccc1C1CCN(C2CC2)CC1` [compound 260], the concentration for half-maximal inhibition (IC50) came out at 0.049 µM.

As to `O=c1[nH]cc(F)c2cc(-c3cncnc3)nc(Nc3ccc(N4CCOCC4)cc3)c12` [compound 429], the IC50 turned out to be 0.055 µM.

As usually defined, the IC50 is the midpoint of a concentration-inhibition curve.
